# Results taken from US10829833B2, “Biological processing of scrap metal, household waste and/or industrial waste for the isolation of heavy metals” (B.R.A.I.N. Biotechnology Research and Information Network AG, priority 2015, dated 2020).
# Columns and labels:
# Assay in all cases: Microbial growth on agar plates with different concentrations of AgNO3 or HAuCl4
# Format in all cases: cell-based
# Design in all cases: key: x = growth; (x) = weak growth
# Conditions in all cases: agar plate
# [1] = test system: Bacillus sphaericus
# Text: (§1) To investigate the tolerated concentration of silver and gold, the microorganisms were propagated in liquid medium and streaked on agar plates with different concentrations of AgNO3 or HAuCl4, respectively.
# [2] = test system: Cupriavidus metallidurans
# Text: as §1
# [3] = test system: Escherichia coli
# Text: as §1
# [4] = test system: Xanthomonas campestris
# Text: as §1
smiles,measurement,setting,value
O=[N+]([O-])[O-].[Ag+] [AgNO3],Microbial growth in dependence on AgNO3 concentration,[1]; AgNO3 2 μM,x
same,Microbial growth in dependence on AgNO3 concentration,[1]; AgNO3 10 μM,x
same,Microbial growth in dependence on AgNO3 concentration,[1]; AgNO3 20 μM,x
same,Microbial growth in dependence on AgNO3 concentration,[1]; AgNO3 50 μM,x
same,Microbial growth in dependence on AgNO3 concentration,[1]; AgNO3 100 μM,x
same,Microbial growth in dependence on AgNO3 concentration,[1]; AgNO3 150 μM,x
same,Microbial growth in dependence on AgNO3 concentration,[2]; AgNO3 2 μM,x
same,Microbial growth in dependence on AgNO3 concentration,[2]; AgNO3 10 μM,x
same,Microbial growth in dependence on AgNO3 concentration,[2]; AgNO3 20 μM,x
same,Microbial growth in dependence on AgNO3 concentration,[2]; AgNO3 50 μM,x
same,Microbial growth in dependence on AgNO3 concentration,[2]; AgNO3 100 μM,x
same,Microbial growth in dependence on AgNO3 concentration,[2]; AgNO3 150 μM,x
same,Microbial growth in dependence on AgNO3 concentration,[2]; AgNO3 200 μM,(x)
same,Microbial growth in dependence on AgNO3 concentration,[3]; AgNO3 2 μM,x
same,Microbial growth in dependence on AgNO3 concentration,[3]; AgNO3 10 μM,x
same,Microbial growth in dependence on AgNO3 concentration,[3]; AgNO3 20 μM,x
same,Microbial growth in dependence on AgNO3 concentration,[3]; AgNO3 50 μM,x
same,Microbial growth in dependence on AgNO3 concentration,[3]; AgNO3 100 μM,x
same,Microbial growth in dependence on AgNO3 concentration,[4]; AgNO3 2 μM,x
same,Microbial growth in dependence on AgNO3 concentration,[4]; AgNO3 10 μM,x
same,Microbial growth in dependence on AgNO3 concentration,[4]; AgNO3 20 μM,x
same,Microbial growth in dependence on AgNO3 concentration,[4]; AgNO3 50 μM,x
same,Microbial growth in dependence on AgNO3 concentration,[4]; AgNO3 100 μM,x
[Au+3].[Cl-].[Cl-].[Cl-].[Cl-].[H+] [HAuCl4],Microbial growth in dependence on HAuCl4 concentration,[1]; HAuCl4 2 μM,x
same,Microbial growth in dependence on HAuCl4 concentration,[1]; HAuCl4 20 μM,x
same,Microbial growth in dependence on HAuCl4 concentration,[1]; HAuCl4 100 μM,x
same,Microbial growth in dependence on HAuCl4 concentration,[1]; HAuCl4 200 μM,x
same,Microbial growth in dependence on HAuCl4 concentration,[2]; HAuCl4 2 μM,x
same,Microbial growth in dependence on HAuCl4 concentration,[2]; HAuCl4 20 μM,x
same,Microbial growth in dependence on HAuCl4 concentration,[2]; HAuCl4 100 μM,x
same,Microbial growth in dependence on HAuCl4 concentration,[2]; HAuCl4 200 μM,x
same,Microbial growth in dependence on HAuCl4 concentration,[2]; HAuCl4 300 μM,x
same,Microbial growth in dependence on HAuCl4 concentration,[2]; HAuCl4 400 μM,x
same,Microbial growth in dependence on HAuCl4 concentration,[2]; HAuCl4 500 μM,x
same,Microbial growth in dependence on HAuCl4 concentration,[3]; HAuCl4 2 μM,x
same,Microbial growth in dependence on HAuCl4 concentration,[3]; HAuCl4 20 μM,x
same,Microbial growth in dependence on HAuCl4 concentration,[3]; HAuCl4 100 μM,x
same,Microbial growth in dependence on HAuCl4 concentration,[3]; HAuCl4 200 μM,x
same,Microbial growth in dependence on HAuCl4 concentration,[3]; HAuCl4 300 μM,x
same,Microbial growth in dependence on HAuCl4 concentration,[4]; HAuCl4 2 μM,x
same,Microbial growth in dependence on HAuCl4 concentration,[4]; HAuCl4 20 μM,x
same,Microbial growth in dependence on HAuCl4 concentration,[4]; HAuCl4 100 μM,x
same,Microbial growth in dependence on HAuCl4 concentration,[4]; HAuCl4 200 μM,x
same,Microbial growth in dependence on HAuCl4 concentration,[4]; HAuCl4 300 μM,x
